Experimental findings from the Deep4Chem optical property database are described below.

The series in a line: solvent given as SMILES.

In the case of `c1ccc(N(c2ccccc2)c2ccc(-c3ccc(-c4ccc(N(c5ccccc5)c5ccccc5)cc4)c4nsnc34)cc2)cc1`, where the note is “in ClCCl”, the absorption maximum came to 459 nm.
`COc1ccc(-c2c3nc(cc4ccc([nH]4)c(-c4ccc(OC)c(OCC(=O)O)c4)c4nc(cc5ccc2[nH]5)C=C4)C=C3)cc1OCC(=O)O` returned an absorption maximum (in CS(C)=O) of 633 nm.
For the setting “in CCO”, `CCOC(=O)c1cc(C(=O)OCC)c2ccc(N(C)C)cc2n1` yielded an absorption maximum of 430 nm.
With `Cc1cc(/N=C/c2cc(S(=O)(=O)[O][Na])ccc2O)c(/N=C/c2cc(S(=O)(=O)[O][Na])ccc2O)cc1C`, the absorption maximum (in O) was determined as 371 nm.
With `c1cc2c3c(cccc3c1)-c1cc3c(ccc4ccccc43)cc1-2`, the absorption maximum (in CCCCCCC) is given as 405 nm.
Consider `COC(=O)c1cc(=O)n(Cc2ccccc2)c2cc(-c3ccc(N(C)C)cc3)sc12`, for which the absorption maximum is, setting by setting: (in CC#N) 432 nm; (in ClCCl) 436 nm.
With `O=C1C=C(Nc2ccccc2F)C(=O)c2ccccc21`, the absorption maximum came to 442 nm (in CCCCCC) and 448 nm (in CO).
For the setting “in CS(C)=O”, `O=C(O)COc1cccc(-c2c3nc(cc4ccc([nH]4)c(-c4cccc(OCC(=O)O)c4)c4nc(cc5ccc2[nH]5)CC4)CC3)c1` registered an absorption maximum of 736 nm.
`CC1(C)c2cccc(-c3nc(-c4ccccc4)nc(-c4ccccc4)n3)c2Oc2c(-n3c4ccccc4c4ccccc43)cccc21` yielded an absorption maximum (in Cc1ccccc1) of 341 nm.
As to `COc1cccc(OC)c1-c1c2ccc(=[N+]3CCNCC3)cc-2oc2cc(N3CCNCC3)ccc12`, the absorption maximum reads like this: (in CCO) 561 nm; (in O) 542 nm.
Consider `c1ccc(-c2ccccc2)cc1`, for which the absorption maximum by setting is: (in C1CCCCC1) 254.13 nm; (in C1COCCO1) 246 nm.
Consider `CC1=CC(C)=[N+]2C1=C(C)c1cccn1[B-]2(F)F`, for which the absorption maximum is listed as 492 nm (in CCCCCC), 486 nm (in CO) and 488 nm (in ClCCl).
Regarding `CC(C)(C)c1ccc2c(c1)c1cc(C(C)(C)C)ccc1n2-c1ccc(N(c2ccc(-c3ccc(-c4ccc(-c5ccc(-c6ccc(N(c7ccc(-n8c9ccc(C(C)(C)C)cc9c9cc(C(C)(C)C)ccc98)cc7)c7ccc(-n8c9ccc(C(C)(C)C)cc9c9cc(C(C)(C)C)ccc98)cc7)cc6)s5)c5nsnc45)s3)cc2)c2ccc(-n3c4ccc(C(C)(C)C)cc4c4cc(C(C)(C)C)ccc43)cc2)cc1`, the absorption maximum (in ClCCl) is recorded as 528 nm.
For the compound `O=c1oc2ccccc2cc1-c1nc2ccccc2o1`, the absorption maximum reads like this: (in C1CCOC1) 354 nm; (in C1COCCO1) 357 nm; (in CC1CCCCC1) 356 nm; (in CC#N) 352 nm; (in CC(C)=O) 352 nm; (in CC(C)CO) 353 nm. Besides, the absorption maximum was determined as 354 nm (in CC(C)O); 352 nm (in CCOC(C)=O); 352 nm (in CN(C)C=O); 352 nm (in CO); 354 nm (in CS(C)=O); 360 nm (in Cc1ccccc1). Also, the absorption maximum is, setting by setting: (in ClC(Cl)(Cl)Cl) 360 nm; (in ClC(Cl)Cl) 356 nm; (in OCCO) 354 nm.
Consider `Cc1ccc(C2=Nc3cccc4[n+]3[B-](F)(O2)OC(c2ccc(C)cc2)=N4)cc1`, for which the absorption maximum (in ClCCl) is on record as 394 nm.
As to `CCCCCCc1ccc2c3c(ccc2c1)O[B-](F)(F)[N+](c1cc([N+]2=Cc4c(ccc5cc(CCCCCC)ccc45)O[B-]2(F)F)cc([N+]2=Cc4c(ccc5cc(CCCCCC)ccc45)O[B-]2(F)F)c1)=C3`, the absorption maximum runs as follows: (in C1CCOC1) 418 nm; (in CC#N) 419 nm; (in Cc1ccccc1) 433 nm; (in ClCCl) 428 nm.
Turning to `CN(C)c1ccc2c3c(c(=O)oc2c1)C=c1cc2c(cc1O3)=[N+](CCC(=O)O)CCC2`, the absorption maximum is on record as 593 nm (in CC#N), 591 nm (in CO), 606 nm (in ClCCl) and 587 nm (in O).
`S=P1(c2ccccc2)C(c2ccccc2)=Cc2cc3ccccc3cc21` (stereo not given) gave an absorption maximum (in ClCCl) of 387 nm.
For `O[Si](c1c2ccccc2cc2ccccc12)(c1c2ccccc2cc2ccccc12)c1c2ccccc2cc2ccccc12`, the absorption maximum (in ClC(Cl)Cl) came out at 402 nm.
Consider `CCCCOC(=O)c1cc(Cl)c2c3c(Cl)cc4c5c(cc(Cl)c(c6c(Cl)cc(C(=O)OCCCC)c1c26)c53)C(=O)N(c1c(C(C)C)cccc1C(C)C)C4=O`, for which the absorption maximum (in Cc1ccccc1) amounted to 496 nm.
Regarding `CCC1(CC)c2cc(N(C)C)ccc2-c2ccc(C(F)(F)F)cc21`, the absorption maximum turned out to be 341 nm (in C1CCCCC1); 302 nm (in CC#N); 342 nm (in CCO); 342 nm (in CCOCC); 350 nm (in CS(C)=O); 344 nm (in ClCCl). Where the note is “in c1ccccc1”, this compound came in with an absorption maximum of 346 nm.
Regarding `F[B-]1(F)n2c(c3cccc4cccc2c43)=Nc2ccc3ccccc3[n+]21`, the absorption maximum is, setting by setting: (in C1CCOC1) 486 nm; (in CC#N) 481 nm; (in CCCCCC) 490 nm; (in Cc1ccccc1) 490 nm; (in ClCCl) 455 nm.
`CCCCCCCCn1c2cc(/C=C/c3ccc(N(c4ccccc4)c4ccccc4)cc3)ccc2c2cc3c(cc21)c1ccc(/C=C/c2ccc(N(c4ccccc4)c4ccccc4)cc2)cc1n3CCCCCCCC` showed an absorption maximum (in Cc1ccccc1) of 416 nm.
With `COc1cccc2c1-c1ccccc1C2=O`, the absorption maximum runs as follows: (in C1CCCCC1) 420 nm; (in CC#N) 432 nm; (in CCO) 432 nm.
Consider `CC1(C)C(/C=C/C2=C(Cl)C(=C/C=C3/N(Cc4ccccc4)c4ccccc4C3(C)C)/CCC2)=[N+](Cc2ccccc2)c2ccccc21`, for which the absorption maximum (in CO) amounted to 784 nm.
For the compound `c1ccc(-c2c3c(nc4ccccc24)-c2cc4c(cc2CC3)-c2nc3ccccc3c(-c3ccccc3)c2CC4)cc1`, the absorption maximum (in ClC(Cl)Cl) came out at 376 nm.
On to `CCN(CC)c1ccc2c(-c3ccccc3C(=O)[O-])c3ccc(=[N+](CC)CC)cc-3oc2c1`, for which the absorption maximum is, setting by setting: (in CC#N) 555 nm; (in CCO) 539 nm; (in CN(C)C=O) 560 nm; (in O) 554 nm.
The compound `COC(=O)c1noc(-c2ccccc2)c1Br` displayed an absorption maximum (in C1CCCCC1) of 307 nm.
Where the note is “in ClCCl”, `N#CC1N=c2cc3c4c(cccc4c2=NC1C#N)C(c1ccccc1)=C(c1ccccc1)O3` (stereo not given) had an absorption maximum of 501 nm.
`FC(F)(F)c1ccc(B2c3ccccc3Nc3ccccc32)c(C(F)(F)F)c1`: under “in ClCCl”, the absorption maximum was 388 nm.
As for `CC[N+](CC)=c1ccc2c(-c3ccccc3C(=O)O)c3c(=O)oc4cc5c(cc4c3oc-2c1)CCCN5C`, the absorption maximum (in CCO) was determined as 598 nm, the absorption maximum (in ClC(Cl)Cl) stood at 610 nm and the absorption maximum (in O) is 601 nm.
`CC[n+]1c(-c2ccccc2)c2cc(-n3cccc3)ccc2c2ccc(N)cc21` yielded an absorption maximum (in O) of 462 nm.
In the case of `C[n+]1ccc(/C=C/c2ccc(N(c3ccccc3)c3ccc(/C=C/c4cc[n+](C)cc4)cc3)cc2)cc1`, the absorption maximum (in ClCCl) is recorded as 402 nm, the absorption maximum (in O) is recorded as 509 nm and the absorption maximum (in OCC(O)CO) came to 496 nm.
Compound `Cc1ccc(O)c(-c2nc(C)c3n2CCCC3)c1` showed an absorption maximum (in ClCCl) of 321 nm.
Under “in CO”, `c1cc2c(C3SCCCS3)c3ccc(=[N+]4CCCCC4)cc-3oc2cc1N1CCCCC1` yielded an absorption maximum of 583.65 nm.
Compound `COc1ccc(C2=C/C(=C\c3ccccc3)C(=O)O2)cc1OC` came in with an absorption maximum (in C1COCCO1) of 406 nm.
Take `Cc1ccc(O)cc1`: under “in O”, the absorption maximum came out at 276 nm.
Take `CC1(C)CC(/N=C/c2ccc3ccc4cccc5ccc2c3c45)CC(C)(C)N1[O]`: the absorption maximum is reported as 360 nm (in C1CCCCC1), 359 nm (in CC#N), 359 nm (in CO) and 362 nm (in ClC(Cl)Cl).
`Nc1ccc(/C=C/c2ccc3ccccc3c2)cc1`: the absorption maximum is, setting by setting: (in CC#N) 348 nm; (in CCCCCC) 342 nm.
Where the note is “in O”, `CC[n+]1nc2cc3c4c(c2c2ccccc21)CCCN4CCC3` yielded an absorption maximum of 493 nm.
With `c1cc2ccc1CCCc1ccc(c3nsnc13)CCC2`, the absorption maximum runs as follows: (in C1CCCCC1) 378 nm; (in CC#N) 384 nm; (in ClC(Cl)Cl) 384 nm.
The compound `C[C@]12SC(=O)C=C1c1nc(-c3ccc(Cl)cc3)[nH]c1C1=CC(=O)S[C@@]12C` came in with an absorption maximum (in CC#N) of 451 nm.
Take `CCOC(=O)c1c(-c2cc3ccccc3oc2=O)nn(-c2cccc(Cl)c2)c1C(=O)OCC`: the absorption maximum (in ClCCl) is 325 nm.
Compound `CCCCC(CC)CN1C(=O)c2cc(Oc3ccc(OC)cc3)c3c4c(Oc5ccc(C(C)(C)C)cc5)cc5c6c(cc(Oc7ccc(C(C)(C)C)cc7)c(c7c(Oc8ccc(OC)cc8)cc(c2c37)C1=O)c64)C(=O)N(c1c(C(C)C)cccc1C(C)C)C5=O` (stereo not given) came in with an absorption maximum (in Cc1ccccc1) of 581 nm.
On to `Cc1c(C(=O)c2ccccc2Cl)c2ccc3cccc4c5cccc6ccc1c(c65)c2c34`, for which, where the note is “in ClCCl”, the absorption maximum amounted to 390 nm.
The compound `CC1(C)c2ccccc2N(c2ccc3c(c2)Oc2ccccc2P3(=O)c2ccccc2)c2ccccc21` (stereo not given) showed an absorption maximum (in Cc1ccccc1) of 348 nm.
Same read-out and setting: the value for `COc1ccc(-c2ccc3c(c2)c2cc(-c4ccc(OC)cc4)ccc2n3-c2ccc(C(=O)c3ccc4sc5ccccc5c4c3)cc2)cc1` was 366 nm.
For `c1ccc(N(c2ccccc2)c2ccc3ccc4c(N(c5ccccc5)c5ccccc5)ccc5ccc2c3c54)cc1`, the absorption maximum by setting is: (in Cc1ccccc1) 426 nm; (in ClCCl) 423 nm.
Regarding `CCCCCCc1ccc(-n2c3[n+](c4c5ccccc5c5ccccc5c42)[B-](C)(C)c2cc(-n4c5ccccc5c5ccccc54)ccc2-3)cc1`, the absorption maximum is on record as 370 nm (in C1CCOC1), 369 nm (in CC#N), 375 nm (in Cc1ccccc1) and 372 nm (in ClCCl).
The compound `CC1(C)c2ccccc2N(c2ccc(-c3ncccn3)cc2)c2ccccc21` had an absorption maximum (in Cc1ccccc1) of 359 nm.
